Source: patent publication US20040033252A1, “Agents for recoverying from or preventing fatigue in the central nerve system and foods for recovering from or preventing fatigue” (priority 2000, published 2004)

Key:
analbuminemia rats = assay: Treadmill running test to exhaustion in analbuminemia rats (fatigue test); type: in vivo, rat; details: NAR; for Running time up to exhaustion: i.p., BCH 8 mg/kg and BCAA 250 mg/kg 1 h before running, albumin 1 g/kg 1.5 h before, mean ± SEM
Protocol: Three-week-old female analbuminemia rats (Japan SLC) that genetically lacked albumin in their blood plasma, which had been raised under light and dark cycles of 7:00 to 19:00 (light cycle) at room temperature 22° C., were subjected to the fatigue tests. Prior to the fatigue tests, the analbuminemia rats were subjected to training (20 m/min, 7% inclination) for 30 minutes, four times a week, during a predetermined period of time in 13:00 to 15:00, and this training lasted for four weeks so as to adapt them to running on the treadmill. After the training had been completed, all the analbuminemia rats (weight 210 to 255 g) were subjected to exhaustion tests on the treadmill under the same conditions, and time up to an exhaustion state was measured.
The rats, which were divided into four groups, were respectively treated with physiological saline (made by Otsuka Pharmaceutical Co., Ltd “0.9% physiological saline”), the BCH (made by Sigma K.K., NoA7902), the BCAA and albumin (made by Sigma K.K. A-6272 (Fraction V)). The dose of physiological saline was set to 5 ml/kg, that of the BCH was 8 mg/kg and that of the BCAA was 250 mg/kg, and these were given into the abdominal cavity one hour prior to the start of the running tests. Here, BCH, BCAA and albumin were respectively dissolved in physiological saline, and then administered. The dose of albumin was set to 1 g/kg, and given into the abdominal cavity one and half hours prior to the start of […]. […] These doses were determined so as to obtain sufficient effects, and in the case of actual doses to the human being, these can be changed appropriately depending on various factors.
(§1) These measured data were obtained by a analysis of variance (ANOVA) in one-way layout of Fisher's PLSD test by using multiple comparisons and repeated measurements, based upon the standard error. Next, the data were classified based upon running times, and analyzed by the Student's t-test based upon observation with paired t-test in the total effects of the BCAA and BCH treatment groups.

[1] = test system: striatal synaptosome of analbuminemia rats; assay: Tryptophan and metabolites in striatal synaptosome immediately after exhaustion (HPLC, electrochemical detector); type: in vivo, rat; details: for Concentration of 5-HIAA in striatal synaptosome / Concentration of 5-HT in striatal synaptosome / Concentration of 5-HTP in striatal synaptosome / Concentration of tryptophan in striatal synaptosome: NAR, immediately after exhaustion, mean ± SEM
Protocol: The head of each of the rats was sacrificed by decapitation immediately after the training so that the striatal synaptosome was separated, and tryptophan(Trp), 5-hydroxytryptophan (5-HTP), 5-hydroxytryptamin (5-HT) and 5-hydroxyindoleacetic acid (5-HIAA) were measured by high-performance liquid chromatography using an electrochemical detector. Moreover, the protein level in the P2 fraction was measured in accordance with the method of Lowry et al. (J. Protein measurements with the Folin phenol reagent, J. Biol. Chem. 193: 265-275; 1951).
as §1

[2] = test system: tryptophan-deficient rats; assay: Treadmill running test to exhaustion in tryptophan-deficient rats (Evaluation Test 2); type: in vivo, rat; details: i.p. 1 h before running, BCH 150 mg/kg, BCAA 250 mg/kg, mean ± standard error
Source text: Three-week-old female rats of Sprague-Dawley-type (each rat: 50 g) were raised for one month to a weight of 200 g [fed with normal food of AIN93G for one month (standard refined feed, made by Oriental Yeast, Co., Ltd., with the tryptophan being contained at 2.3 g/kg)], and from this time on, these were fed with the tryptophan-deficient food (adjusted feed in which only the tryptophan was removed from the above-mentioned AIN93G, with corn starch being used for compensating for the corresponding portion) for 16 days to form the tryptophan-deficient rats. Amino acids, contained in the normal food AIN93G, were respectively manufactured by AJINOMOTO CO., INC., and the respective contents (g) in 1 kg of feed were: alanine 5.6, arginine 6.8, aspartic acid 13.1, cystine 3.9, glutamic acid 39.6, glycine 3.4, histidine 5.6, isoleucine 10.1, leucine 17.5, lysine 14.9, methionine 5.6, phenyl alanine 9.5, proline 21.6, serine 9.7, threonine 7.7, tryptophan 2.3 (only contained in the tryptophan-containing food), tyrosine 10.4, and valine 12.6 (each of the amino acids having a purity of 100%). […] After the training had been completed, the rats were subjected to running loads on the treadmill at a speed of 20 m/min (inclination: 7%) up to exhaustion, and the running time was evaluated as the fatigue tests shown below. […]

[3] = test system: tryptophan-deficient rats; assay: Treadmill running test to exhaustion in tryptophan-deficient rats given tryptophan-added food (Evaluation Test 3); type: in vivo, rat
Source text: Three-week-old female rats of Sprague-Dawley-type (each rat: 50 g) were raised for one month to a weight of 200 g [fed with normal food of AIN93G for one month (standard refined feed, made by Oriental Yeast, Co., Ltd., with the tryptophan being contained at 2.3 g/kg)], and from this time on, these were fed with the tryptophan-deficient food (adjusted feed in which only the tryptophan was removed from the above-mentioned AIN93G, with corn starch being used for compensating for the corresponding portion) for 16 days to form the tryptophan-deficient rats. Amino acids, contained in the normal food AIN93G, were respectively manufactured by AJINOMOTO CO., INC., and the respective contents (g) in 1 kg of feed were: alanine 5.6, arginine 6.8, aspartic acid 13.1, cystine 3.9, glutamic acid 39.6, glycine 3.4, histidine 5.6, isoleucine 10.1, leucine 17.5, lysine 14.9, methionine 5.6, phenyl alanine 9.5, proline 21.6, serine 9.7, threonine 7.7, tryptophan 2.3 (only contained in the tryptophan-containing food), tyrosine 10.4, and valine 12.6 (each of the amino acids having a purity of 100%). These rats were subjected to training for 30 minutes at a speed of 20 m/min (inclination: 7%) by treadmill running practice, three times a week, which started at the age of 3 weeks old, and lasted for 2 months. After the training had been completed, the rats were subjected to running loads on the treadmill at a speed of 20 m/min (inclination: 7%) up to exhaustion, and the running time was evaluated as the fatigue tests shown below. […] The evaluation was made by using inter-group comparisons (with paired t-test) of a Student's t-test.
To the tryptophan-deficient rats that had been subjected to the above-mentioned training were respectively given tryptophan-added food (AIN93G to which 2.3 g/kg of the tryptophan was added), and were then given physiological saline, a mixture of the BCH and the BCAA, the BCH and the BCAA, and comparison tests were carried out among the four groups. […]

rats = details: tryptophan 1 mM/30 min continuously injected into the brain; cited from earlier work

Compound	Extension of running time relative to physiological saline (analbuminemia rats; from Table 1)	Running time up to exhaustion (analbuminemia rats) [min]	Change in uptake of 5-HTP into striatal synaptosome versus physiological saline group ([1]; BCAA and BCH treated groups totaled, group B (time to exhaustion 190 to 271 minutes), p<0.025) [%]	Change in uptake of tryptophan into striatal synaptosome versus physiological saline group ([1]; BCAA and BCH treated groups totaled, group B (time to exhaustion 190 to 271 minutes), p<0.05) [%]	Concentration of 5-HIAA in striatal synaptosome [1] [pmol/mg protein]	Concentration of 5-HT in striatal synaptosome [1] [pmol/mg protein]	Concentration of 5-HTP in striatal synaptosome [1] [pmol/mg protein]	Concentration of tryptophan in striatal synaptosome [1] [pmol/mg protein]	Running time up to exhaustion [2] [min]	Running time of single rats that have not reached exhaustion ([3]; BCH only-administration, two cases)	Running time up to exhaustion ([3]; tryptophan-deficient rats given tryptophan-added food, doses as in evaluation test 2, i.p. 1 h before, mean ± standard error, values >542 set as 542) [min]	Running-time difference versus physiological saline group (average-value comparison) ([3]; tryptophan-deficient rats given tryptophan-containing food, not statistically significant)	Onset of fatigue in the central nervous system or muscles (rats)
NC1(C(=O)O)CC2CCC1C2 (stereo not drawn) [BCH, 2-aminobicyclo-[2,2,1]-heptane-2-carboxylic acid]	approximately twice as long	188 ± 33	−23	−19	3.58 ± 0.21	5.20 ± 0.79	1.25 ± 0.17	53.43 ± 10.50	308 ± 22	524 minutes and not less than 524 minutes	428 ± 45	approximately 40 minutes	
N[C@@H](Cc1c[nH]c2ccccc12)C(=O)O [tryptophan]													exhibit the fatigue in the central nervous system or muscles in very early stage
Albumin: albumin made by Sigma K.K. A-6272 (Fraction V)		96 ± 22			3.30 ± 0.06	5.00 ± 0.47	1.45 ± 0.18	52.41 ± 8.97					
